Series [1] is described as follows: Anti-pentylenetetrazol. The conditions noted are these: oral, 30 minutes before pentylenetetrazol treatment 130 mg/kg s.c. It counts as in vivo. How it is done: (§1) The pharmacologic activity of the compounds of the invention has been assessed by the following classical tests which are known to indicate useful therapeutic activities:
Anti-pentylenetetrazol (L. O. Randall, W. Schallek, G. A. Heise, E. F. Keith and R. Bagdon: J. Pharmacol. Exp. Therapeutics, 129, 163-171, 1960).
(§2) Main neuropharmacological effects of substituted benzodiazepine in oral
^a 30 minutes before pentylenetetrazol treatment 130 mg/kg s.c.

The nature of series [2]: Analgesic. It counts as in vivo. The note with it: oral, prolongs reaction time 50 percent of control group in 50 percent of treated animals, read-out: Analgesic DE50. How it is done: as §1
Analgesic (N. B. Eddy and D. Leimbach: J. Pharmacol. Exp. Therapeutics, 107, 385-393, 1953.)
as §2
^c at 240 minutes after drug treatment.
^c' at 60 minutes after drug treatment.
^(x) Prolongs reaction time 50 percent of control group in 50 percent

Series [3] is described as follows: Miorelaxation. It is filed as in vivo. The conditions noted are these: oral, reduces "falling time" 50 percent of control group in 50 percent of treated animals, read-out: Miorelaxation DE50. The method, then: as §1
Miorelaxation (N. W. Dunham and T. S. Miya: J. Am. Pharm. Ass., 46, No. 3, 208-209, 1957.)
as §2
^d at 120 minutes after drug treatment.
^d' at 60 minutes after drug treatment.
^(xx) Reduces "falling time" 50 percent of control group in 50 percen

Series [4] can be described thus: Anti-ECS. It counts as in vivo. The conditions noted are these: oral, 60 minutes before ECS. The method, then: as §1
ECS (E. A. Swinyard, W. C. Brown and L. S. Goodman: J. Pharmacol. Exp. Therapeutics, 106, 319-330, 1952.)
as §2
^b 60 minutes before ECS.

A short description of series [5]: Toxicity test, LD50 mice p.os. The conditions noted are these: mouse, in vivo, po. The text has this:
|Compound LD50 mice p. os in mg/kg

A short description of series [6]: Spontaneous Motor Activity. It counts as in vivo. The note with it: 0.5 h; oral; 30 minutes period starting 30 minutes after drug treatment; reduces movements counts 50 percent of control activity in group of 4 animals; read-out: Spontaneous Motor Activity DE50. The method, then:
as §1
Spontaneous Motor Activity (W. J. Kinnard and C. J. Carr: J. Pharmacol. Exp. Therapeutics, 121, 354-361, 1957.)
as §2
^e measured in 30 minutes period starting 30 minutes after drug
^(xxx) Reduces movements counts 50 percent of control activity in
group of 4 animals: 5 groups/dose.

[7] abbreviates: convulsions, read-out: Anti-pentylenetetrazol, Convulsions DE50.
[8] abbreviates: death, read-out: Anti-pentylenetetrazol, Death DE50.
Setting [9] is: 4 h, at 240 minutes after drug treatment.
Where [10] appears, read: 2 h, at 120 minutes after drug treatment.
[11] abbreviates: convulsions, read-out: Anti-ECS, Convulsions DE50.
[12] abbreviates: death, read-out: Anti-ECS, Death DE50.

Molecules are shown by their SMILES.

For orientation: LD50 means the dose expected to kill half of the subjects tested.

Consider `CC(=O)NCCCC(=O)OC1N=C(c2ccccc2)c2cc(Cl)ccc2NC1=O` (centres unmarked) [Example 1, 3-(4-acetamido)butyryl-oxy-7-chloro-1,3-dihydro-5-phenyl-2H-1,4-benzodiazepine-2-one], for which the ED50 was found to be 7 mg/kg in series [1] (setting [7]); 4 mg/kg in series [1] (setting [8]); 26 mg/kg in series [2] (setting [9]); 6.5 mg/kg in series [3] (setting [10]); 38 mg/kg in series [4] (setting [11]); 0.22 mg/kg in series [4] (setting [12]). In addition, the ED50 in series [6] amounted to 9 mg/kg. In addition, the LD50 in series [5] was found to be 1500 mg/kg.

In the case of `CC(C)(C)OC(=O)NCCCC(=O)OC1N=C(c2ccccc2)c2cc(Cl)ccc2NC1=O` (centres unmarked) [Example 2, 7-chloro-1,3-dihydro-5-phenyl-3-(4-tertiary-butoxycarbonylamino)butyryloxy-2H-1,4-benzodiazepine-2-one], the ED50 in series [1] (setting [7]) was determined as 14 mg/kg; in series [1] (setting [8]), 7 mg/kg; in series [2] (setting [9]), 42 mg/kg; in series [3] (setting [10]), 16 mg/kg; in series [4] (setting [11]), 60 mg/kg; in series [4] (setting [12]) it was 1 mg/kg. In addition, the ED50 in series [6] came out at 2.6 mg/kg. The same compound displayed an LD50 in series [5] of over 1500 mg/kg.

For `CC(=O)NCCCC(=O)OC1N=C(c2ccccc2Cl)c2cc(Cl)ccc2NC1=O` (centres unmarked) [Example 3, 3-(4-acetamido)butyryloxy-7-chloro-5-o-chlorophenyl-1,3-dihydro-2H-1,4-benzodiazepine-2-one], the ED50 turned out to be 2.6 mg/kg in series [1] (setting [7]); 0.15 mg/kg in series [1] (setting [8]); 42 mg/kg in series [2] (setting [9]); 4.2 mg/kg in series [3] (setting [10]); 4.6 mg/kg in series [4] (setting [11]); 0.02 mg/kg in series [4] (setting [12]). Besides, in series [6], the ED50 amounted to 0.18 mg/kg. The LD50 in series [5] came out at 1200 mg/kg.

In the case of `CC(=O)NCCCC(=O)OC1N=C(c2ccccc2)c2cc(Cl)ccc2N(C)C1=O` (centres unmarked) [Example 4, 3-(4-acetamido)butyryloxy-7-chloro-1,3-dihydro-1-methyl-5-phenyl-2H-1,4-benzodiazepine-2-one], the ED50 in series [1] (setting [7]) was 5 mg/kg; in series [1] (setting [8]), 2.2 mg/kg; in series [2] (setting [9]), 30 mg/kg; in series [3] (setting [10]), 19 mg/kg; in series [4] (setting [11]), 4 mg/kg; in series [4] (setting [12]), 0.7 mg/kg. Moreover, in series [6], the ED50 worked out at 1.9 mg/kg. The compound also yielded an LD50 in series [5] of 1000 mg/kg.

Turning to `CC(=O)NCC(=O)OC1N=C(c2ccccc2)c2cc(Cl)ccc2NC1=O` (centres unmarked) [Example 5, 3-acetamido-acetoxy-7-chloro-1,3-dihydro-5-phenyl-2H-1,4-benzodiazepine-2-one], the ED50 in series [1] (setting [7]) was determined as 6 mg/kg; in series [1] (setting [8]), 1.5 mg/kg; in series [2] (setting [9]) it was 34 mg/kg; in series [3] (setting [10]), 15 mg/kg; in series [4] (setting [11]), 12 mg/kg; in series [4] (setting [12]), 0.32 mg/kg. The ED50 in series [6] came out at 0.7 mg/kg. This compound had an LD50 in series [5] of 1400 mg/kg.

For `CC(=O)NCCCC(=O)OC1N=C(c2ccccc2Cl)c2cc(Cl)ccc2N(C)C1=O` (centres unmarked) [Example 6, 3-(4-acetamido)-butyryloxy-7-chloro-5-o-chlorophenyl-1,3-dihydro-1-methyl-2H-1,4-benzodiazepine-2-one], the ED50 came to 0.2 mg/kg in series [1] (setting [7]); 0.16 mg/kg in series [1] (setting [8]); 19 mg/kg in series [2] (1 h, at 60 minutes after drug treatment (c')); 2 mg/kg in series [3] (1 h, at 60 minutes after drug treatment (d')); 5.5 mg/kg in series [4] (setting [11]); 0.032 mg/kg in series [4] (setting [12]). The ED50 in series [6] is 1.9 mg/kg. The same compound yielded an LD50 in series [5] of over 1000 mg/kg.

As for `O=C1Nc2ccc(Cl)cc2C(c2ccccc2)=NC1O` (centres unmarked) [Oxazepam, reference compound], the ED50 in series [1] (setting [7]) was 20 mg/kg; in series [1] (setting [8]), 5.5 mg/kg; in series [2] (setting [9]), 28 mg/kg; in series [3] (setting [10]), 25 mg/kg; in series [4] (setting [11]), 40 mg/kg; in series [4] (setting [12]), 4 mg/kg. Also, the ED50 in series [6] stood at 4.2 mg/kg. Also, the LD50 in series [5] was over 1500 mg/kg.

For the origin of these results see US4487771A, “C-3 Substituted 1,4-benzodiazepines and pharmaceutical utilization thereof” (Medosan Industrie Biochimiche Riunite, S.p.A., priority 1983, dated 1984).
